Measured values taken from patent publication US20210228525A1, “Methods of Administering Monomethyl Fumarate and Prodrugs Thereof Having Reduced Side Effects” (Arbor Pharmaceuticals, LLC, priority 2012, published 2021).

Assay: Randomized double-blind crossover food effect single-dose study: safety and tolerability (flushing, feeling hot)
Type: in vivo, human
Settings: for Subjects reporting flushing: fasted group; for Subjects reporting feeling hot more than for placebo: fed or fasted groups
Source text: (§1) Twenty-four healthy adult volunteers (males and females) participated in the study. Twelve of the subjects received a dosage form of Example 3, once in a fed condition and once in a fasted condition, with a two-week washout between treatments. The fasted dosing was achieved by dosing the subject following an overnight fast while the fed dosing was achieved by dosing the subject after consuming a high fat-content breakfast.
as §1, with “Twelve” for “Twenty-four”, “All twelve” for “Twelve of the”, “5,” for “3,”
as §1, with “Twelve” for “Twenty-four”, “All twelve” for “Twelve of the”, “10,” for “3,”

[1] = Example 3 dosage form, 200 mg single dose
[2] = Example 5 dosage form, 200 mg single dose
[3] = Example 10 dosage form, single dose

CCN(CC)C(=O)COC(=O)/C=C/C(=O)OC [Compound (1), (N,N-Diethylcarbamoyl)methyl methyl (2E)but-2-ene-1,4-dioate]
Severity of all adverse events [1]: mild
Tolerability during the trial [1]: well tolerated
Subjects reporting flushing (Example 3 dosage form): No subjects
Subjects reporting flushing more frequently than in the fed placebo group (Example 3 dosage form): One
Subjects reporting feeling hot more than for placebo (Example 3 dosage form): no subjects
Severity of all adverse events [2]: mild
Tolerability during the trial [2]: well tolerated
Subjects reporting flushing (Example 5 dosage form): No subjects
Subjects reporting flushing more frequently than in the fed placebo group (Example 5 dosage form): Two
Subjects reporting feeling hot more than for placebo (Example 5 dosage form): no subjects
Adverse events reported in more than one subject and more frequently than for placebo [3]: flushing and feeling hot
Severity of all adverse events [3]: mild
Tolerability during the trial [3]: well tolerated
